From US11504415B2, “Treatment of heart failure with preserved ejection fraction” (Stichting VUmc, priority 2016, dated 2022)
“Also recorded” adds a separate entry of the source.

B1: α-B crystallin: recombinant human α-B crystallin; small heat shock protein encoded by the CRYAB gene, SEQ ID NO:1 (protein, listed as Homo sapiens)
chain: MDIAIHHPWIRRPFFPFHSPSRLFDQFFGEHLLESDLFPTSTSLSPFYLRPPSFLRAPSWFDTGLSEMRLEKDRFSVNLDVKHFSPEELKVKVLGDVIEVHGKHEERQDEHGFISREFHRKYRIPADVDPLTITSSLSSDGVLTVNGPRKQVSGPERTIPITREEKPAVTAAPKK

Experiments:
Assay type in all cases: cell-based, human
[1] = test system: DCM cardiomyocytes; assay: Force measurements (Fpassive) in single demembranated dilated cardiomyopathy (DCM) cardiomyocytes; conditions: SL 1.8-2.4 μm; for Fpassive (Fpassive-SL curve) after alkaline phosphatase vs baseline: AP 2000 U/mL, 40 minutes at 20° C.
Method: (§1) Force measurements were performed on single demembranated cardiomyocytes (n ranged from 9 to 15 for each group and experimental protocol) as described previously.^4, 5 Cardiomyocytes were isolated from donor, AS, and DCM hearts. Briefly, samples were thawed in relaxing solution (in mmol/L: free Mg, 1; KCl, 100; EGTA, 2; Mg-ATP, 4; imidazole, 10; pH 7.0), mechanically disrupted and incubated for 5 minutes in relaxing solution supplemented with 0.5% TRITON® X-100. The cell suspension was washed 5 times in relaxing solution. Single cardiomyocytes were selected under an inverted microscope and attached with silicone adhesive between a force transducer and a piezoelectric motor. Cardiomyocyte Fpassive was measured in relaxing buffer at room temperature within a sarcomere length (SL) range between 1.8 and 2.4 μm. Force values were normalized to cardiomyocyte cross-sectional area calculated from the diameter of the cells, assuming a cylindrical shape. As a test of cell viability, each cardiomyocyte was also transferred from relaxing to maximally activating solution (pCa4.5), at which isometric force developed. Once a steady state force was reached, the cell was shortened within 1 ms to 80% of its original length to determine baseline force. Only cells developing active forces >20 kN/m^2 were included in the analysis. Thereafter, cardiomyocytes were incubated in relaxing solution supplemented with alkaline phosphatases (AP) (2000 U/mL; New England Biolabs), 6 mmol/L dithiothreitol (MP Biochemicals) for 40 minutes at 20° C. and Fpassive was measured again at SL 1.8-2.4 μm. Subsequently, cardiomyocytes were stretched to ˜2.6 μm SL, incubated in relaxing buffer with pH 6.6, and held in the stretched state for 15 minutes (prestretch). […] Finally, the pH 6.6 buffer was supplemented with recombinant human α-B crystallin at 0.1 mg/ml and Fpassive was measured in the presence of α-B crystallin again at SL 1.8-2.4 μm.

[2] = test system: donor cardiomyocytes; assay: Force measurements (Fpassive) in single demembranated donor cardiomyocytes; conditions: SL 1.8-2.4 μm; for Fpassive (Fpassive-SL curve) after alkaline phosphatase vs baseline: AP 2000 U/mL, 40 minutes at 20° C.
Method: as §1

[3] = test system: AS cardiomyocytes; assay: Force measurements (Fpassive) in single demembranated aortic stenosis (AS) cardiomyocytes; conditions: for Fpassive (Fpassive-SL curve) after alkaline phosphatase vs baseline: AP 2000 U/mL, 40 minutes at 20° C.; for Fpassive (Fpassive-SL curve) after α-B crystallin vs AS baseline: single AS cardiomyocytes
Method: Force measurements were performed on single demembranated cardiomyocytes (n ranged from 9 to 15 for each group and experimental protocol) as described previously.^4, 5 Cardiomyocytes were isolated from donor, AS, and DCM hearts. Briefly, samples were thawed in relaxing solution (in mmol/L: free Mg, 1; KCl, 100; EGTA, 2; Mg-ATP, 4; imidazole, 10; pH 7.0), mechanically disrupted and incubated for 5 minutes in relaxing solution supplemented with 0.5% TRITON® X-100. The cell suspension was washed 5 times in relaxing solution. Single cardiomyocytes were selected under an inverted microscope and attached with silicone adhesive between a force transducer and a piezoelectric motor. Cardiomyocyte Fpassive was measured in relaxing buffer at room temperature within a sarcomere length (SL) range between 1.8 and 2.4 μm. Force values were normalized to cardiomyocyte cross-sectional area calculated from the diameter of the cells, assuming a cylindrical shape. As a test of cell viability, each cardiomyocyte was also transferred from relaxing to maximally activating solution (pCa4.5), at which isometric force developed. Once a steady state force was reached, the cell was shortened within 1 ms to 80% of its original length to determine baseline force. Only cells developing active forces >20 kN/m^2 were included in the analysis. Thereafter, cardiomyocytes were incubated in relaxing solution supplemented with alkaline phosphatases (AP) (2000 U/mL; New England Biolabs), 6 mmol/L dithiothreitol (MP Biochemicals) for 40 minutes at 20° C. and Fpassive was measured again at SL 1.8-2.4 μm. Subsequently, cardiomyocytes were stretched to ˜2.6 μm SL, incubated in relaxing buffer with pH 6.6, and held in the stretched state for 15 minutes (prestretch). Thereafter, cardiomyocytes were returned to slack length and stabilized for 5 minutes before recording the Fpassive with an identical stretch protocol from SL 1.8-2.4 μm in the low pH buffer. Finally, the pH 6.6 buffer was supplemented with recombinant human α-B crystallin at 0.1 mg/ml and Fpassive was measured in the presence of α-B crystallin again at SL 1.8-2.4 μm.
In a second set of experiments, single AS cardiomyocytes underwent either incubation at pH 6.6 alone or a prestretch in relaxing buffer with pH 6.6 to ˜2.6 μm SL, followed by the same stretch protocol from SL 1.8-2.4 μm.
Finally, in a third set of experiments, Fpassive was measured in single AS cardiomyocytes from SL 1.8-2.4 μm before and after incubation with α-B crystallin, before and after incubation with α-B crystallin and a prestretch to ˜2.6 μm SL, and before and after incubation with α-B crystallin, a prestretch to ˜2.6 μm SL and incubation at pH 6.6.

[4] = after AP, prestretch to ~2.6 μm SL in pH 6.6, α-B crystallin 0.1 mg/ml

Row | Molecule | Fpassive (Fpassive-SL curve) after alkaline phosphatase vs baseline [1] | Fpassive (Fpassive-SL curve) after alkaline phosphatase vs baseline ([1]; listed as AP) | Fpassive (Fpassive-SL curve) after alkaline phosphatase vs baseline [2] | Fpassive (Fpassive-SL curve) after alkaline phosphatase vs baseline ([2]; listed as AP) | Fpassive (Fpassive-SL curve) after alkaline phosphatase vs baseline ([3]; AS cardiomyocytes, SL 1.8-2.4 μm) | Fpassive (Fpassive-SL curve) after alkaline phosphatase vs baseline ([3]; AS cardiomyocytes, SL 1.8-2.4 μm, listed as AP) | Fpassive (Fpassive-SL curve) after α-B crystallin [1, 4] | Fpassive (Fpassive-SL curve) after α-B crystallin [2, 4] | Fpassive (Fpassive-SL curve) after α-B crystallin ([3]; AS cardiomyocytes, after AP, prestretch to ~2.6 μm SL in pH 6.6, α-B crystallin 0.1 mg/ml, SL 1.8-2.4 μm) | Fpassive (Fpassive-SL curve) after α-B crystallin vs AS baseline ([3]; α-B crystallin alone, no prior intervention (FIG. 6A), SL 1.8-2.4 μm) | Fpassive (Fpassive-SL curve) after α-B crystallin vs AS baseline ([3]; α-B crystallin and prestretch to ~2.6 μm SL alone (FIG. 6B)) | Fpassive (Fpassive-SL curve) after α-B crystallin vs AS baseline ([3]; α-B crystallin, prestretch to ~2.6 μm SL and pH 6.6 (FIG. 6C))
1 | alkaline phosphatase [reference compound] | the Fpassive-SL curve failed to shift | had no effect on the Fpassive-SL curve; also recorded: not in AS or DCM cardiomyocytes | Fpassive significantly increased; also recorded: the Fpassive-SL curve shifted upward | shifts the diastolic Fpassive-SL relation upward in donor | the Fpassive-SL curve failed to shift | no significant change in the Fpassive-SL curve; also recorded: not in AS or DCM cardiomyocytes |  |  |  |  |  | 
2 | B1 |  |  |  |  |  |  | lowered diastolic stiffness well below baseline values; also recorded: Fpassive dropped to a level significantly below baseline; also recorded: fell to a position that was significantly below baseline and comparable to the baseline position of donor cardiomyocytes; also recorded: falls below the baseline diastolic Fpassive-SL relation in AS and DCM cardiomyocytes | Fpassive normalized again to baseline; also recorded: the curve returned to an intermediate position between baseline and AP; also recorded: coincides with the baseline diastolic Fpassive-SL relation of donor cardiomyocytes | lowered diastolic stiffness well below baseline values; also recorded: dropped Fpassive to a level significantly lower than baseline; also recorded: dropped to a position that was significantly lower than baseline and comparable to the baseline position of donor cardiomyocytes; also recorded: falls below the baseline diastolic Fpassive-SL relation in AS and DCM cardiomyocytes | shifted the diastolic Fpassive-SL relation downward; also recorded: decreased Fpassive significantly; also recorded: shifted the Fpassive-SL curve significantly downward compared to baseline | decreased Fpassive significantly as well; also recorded: yielded a similar result | decreased Fpassive significantly as well; also recorded: yielded a similar result
